Data published in the NIST ThermoML archive (doi:10.1016/j.tca.2017.12.015).
Numbers after ± are expanded uncertainties.

details: Crystal 1; DTA

In order of falling Normal melting temperature:
1. NCC(=O)O [2-aminoacetic acid]  254.70 ± 2 °C
2. Cn1c(=O)c2c(ncn2C)n(C)c1=O [caffeine]  236.20 ± 2 °C
3. OC[C@H]1O[C@@](CO)(O[C@H]2O[C@H](CO)[C@@H](O)[C@H](O)[C@H]2O)[C@@H](O)[C@@H]1O [D-sucrose]  190.90 ± 2 °C
4. O=C[C@H](O)[C@@H](O)[C@H](O)[C@H](O)CO [D-glucose]  162.10 ± 2 °C
5. OC[C@@H](O)[C@@H](O)[C@H](O)[C@@H](O)CO [D-sorbitol]  99.70 ± 2 °C

same assay, conditions: Crystal 2; DSC

`Cn1c(=O)c2c(ncn2C)n(C)c1=O` [caffeine] gave a Triple point temperature of 432.55 ± 6 K.
